Experimental data from publication PMC7203153, “Rational identification and characterisation of peptide ligands for targeting polysialic acid” (Scientific Reports, 2020).
Marks after values point to notes of the source that are not given here. Where a SMILES comes first, the peptide text is derived from it.

Experiments:
[1] = Competitive microarray selectivity screening with α-2,8/9-PSA; assay type: binding, Escherichia coli; settings: 10% competing α-2,8/9-PSA
Method: Competitive microarray screening with α-2,8/9-PSA was conducted in order to assess selective binding of peptides to α-2,8-PSA. The definition of percent selectivity at 10% competing glycan was applied to enable selectivity comparisons amongst a larger set of peptides[25] […] However, the use of an isomeric polymer is a more stringent assessment of selectivity; here, selective binding is guided by three-dimensional conformation and not additionally by differences in functional groups.
Peptide library synthesis, microarray preparation, and microarray screening were performed as described previously[25] with the following specifications. Siglec-related sequences were N-terminally acetylated to match the charge of the corresponding protein fragment. All peptides were printed in triplicate (60 nL spots), and each initial affinity screening was carried out at least three times. Screening was conducted with 10 μM colominic acid (CA; 5 mL per microarray), the Escherichia coli homolog of α-2,8-PSA identical in structure to human-derived PSA[67], and with antibody-based chemiluminescent detection of CA. For selectivity screening, microarrays were challenged with 10 μM CA with 0, 0.1, 1, and 10 μM α-2,8/9-PSA in separate conditions (5 mL total volume each), where molar concentrations were based on molecular weight estimation of synthesized 2,8/9-PSA (details on α-2,8/9-PSA production, purification, and analysis are provided in Supplementary Information). Selectivity screening with monomeric sialic acid was conducted with mass and molar equivalents of N-acetylneuraminic acid (Rose Scientific, Ltd.) along with 10 μM CA (5 mL total volume each). The mass equivalent amount of sialic acid (specifically, 970 μM sialic acid for a given volume of 10 μM CA) was calculated for CA of an average degree of polymerization of 100. For study of pH-dependent binding, affinity screening with CA was performed using PBS buffers of pH 6.0, 7.0, 7.4, and 8.0 (10 mM phosphate, 100 mM NaCl). The impact of NaCl on peptide binding was assessed at pH 7.4 with 0, 100, and 200 mM NaCl. […]

[2] = FA assay with chondroitin sulphate A; settings: FA assay as for peptide–PSA; triplicate measurements; read-out: KD for binding to CS-A
Method: a Neu5Ac concentration (µM) b Neu5Ac concentration (µM) c CS-A concentration (µM)
Supplementary Figure S4. (a–b) Interaction of I-P24 and I-P264 with Neu5Ac as asses sed by fluorescence anisotropy (FA) titrations in the (a) absence or (b ) presence of 500 µM P S A.
For a given volume, the highest concentration tested (150 mM) is approximately mass […]
equivalent to 1.5 mM PSA. […]
except for a small decrease in anisotropy at the highest concentrations of Neu 5Ac, indicating specific peptide binding to PSA. Error bars represent standard deviations from two independent experiments (0.15–15000 µM), with triplicate intra-as say measurements (0.15–150000 µM) .
(c) FA assay for binding of I-P24 and I-P264 to chondroitin sulphate A (CS-A). […] Anisotropies were determined from triplicate measurements (error bars excluded for clarity). […]
Asse ssment of selective binding of peptides with the FA assay is only presented in the context of alternative glycans as proof-of-principle above. However, given the comparatively lower sensitivity of microarray screening, FA may be employed for quantifying affinity in various buffers to asses s the effects of various ions, if any, on PSA binding. […]
(also on this page, place not known: Assessment assess assessed (b) Neu5Ac, PSA. intra-assay µM). assessment experiments, 5Ac (µM)a cNeu5Ac Anisotropy (mA) Anisotropy (mA) Anisotropy (mA)) […]

Compound: CC(=O)N[C@@H](Cc1ccccc1)C(=O)N[C@@H](CCCCN)C(=O)NCC(=O)N[C@@H](CCCNC(=N)N)C(=O)N[C@H](C(=O)N[C@@H](CO)C(=O)N1CCC[C@H]1C(=O)N[C@@H](CCCCN)C(=O)N[C@H](C(=O)NCC(=O)N[C@@H](C)C(=O)N1CCC[C@H]1C(=O)N[C@H](C(=O)N[C@@H](C)C(=O)N[C@H](C(N)=O)[C@@H](C)O)C(C)C)[C@@H](C)O)[C@@H](C)O [I-P24] (Ac-FKGRTSPKTGAPVAT-NH2)
- selectivity mark in Table 1 [1]: I-P24* (Peptides with selectivity >80%)
- Kd [2]: > 1000 µM
